From patent US20060155119A1, “Ascomycin crystalline forms and preparation thereof” (priority 2004, published 2006)

Test: Storing crystalline Ascomycin Form A at 150° C. for 1 hour, solid form checked by PXRD/DSC
Type: physicochemical
Details: solid sample, initial PXRD form A, remark wraps over r7-r8: 'Remained crystalline'
Procedure: The crystalline forms of ascomycin, produced by the methods of the present invention can be analyzed by Powder X-ray diffraction (PXRD) was performed on an X-Ray powder diffractometer, ARL, θ-θ goniometer, Cu-tube, solid state detector with Peltier cooling. The sample holder was a round standard aluminum sample holder with round zero background. Scanning parameters: Range: 2-40 deg.2θ, Continuous Scan, Rate: 3 deg./min.
Ascomycin crystalline forms can also be analyzed by thermal analysis, which can be carried out by […] scanning calorimetry (DSC) and by thermogravimetric analysis (TGA). DSC thermograms can be obtained on a DSC822^e Mettler Toledo instrument (Advanced Instruments, San Juan, Puerto Rico). Sample weight: 3-5 mg; Heating rate: 10° C./min; Number of holes in the crucible: 3. TGA thermograms can be obtained on a Mettler TGA/SDTA 851 instrument (Advanced Instruments, San Juan, Puerto Rico) using a standard Allumina pan. Sample weight: 7-15 mg; Heating rate: 10° C./min.
Starting from Form A having the properties listed in Table 1, incubation at 150° C. for 1 hour produced Ascomycin Form C.

remarks after storing at 150° C. for 1 hour: Remained
Structure (SMILES): CC[C@@H]1/C=C(\C)C[C@H](C)C[C@H](OC)[C@H]2O[C@@](O)(C(=O)C(=O)N3CCCC[C@H]3C(=O)O[C@H](/C(C)=C/[C@@H]3CC[C@@H](O)[C@H](OC)C3)[C@H](C)[C@@H](O)CC1=O)[C@H](C)C[C@@H]2OC [Form A, Ascomycin]
